Data as given in patent publication US10179816B2, “Pharmaceutical compositions comprising an antibody which binds the human anti-Müllerian hormone receptor type II” (LABORATOIRE FRANCAIS DU FRACTIONNEMENT DES BIOTECHNOLOGIES, priority 2011, dated 2019).
“And” between values parts separate entries of the source, which are not always exact repeats. Equal entries are not always repeated. “Also recorded” adds a separate entry of the source.

Key:
[1] = test system: Cov434-AMHRII Asc1a5 (cell line of human ovarian cancer transfected with cDNA AMHRII); experiment: Anti-tumour activity of 3C23K alone or with carboplatin in Cov434-AMHRII Asc1a5 xenograft (tumour volume, T/C ratio, statistical analysis); format: in vivo, female Swiss nude mouse; conditions: for Anti-tumour activity (in words): carboplatin study, comparator as stated in the sentence
Protocol: The 3C23K antibody was evaluated according to the following scheme: 2 times per week for 6 weeks, for a total of 12 injections at about 10 mg/kg/injection, said administration regimen being designated below as “Q3-4D12”. Another group of mice was treated with an irrelevant antibody LFB-R565, administered at about 10 mg/kg/injection, according to the regimen Q3-4D12.
Carboplatin was evaluated, at a sub-optimum dose, i.e. about 60 mg/kg/injection, according to the following scheme: once a week, for 4 weeks, said administration regimen being designated below as “Q7D4”.
Carboplatin was also evaluated in combination with the 3C23K antibody or with the irrelevant antibody LFB-R565. Carboplatin was administered at about 60 mg/kg/injection according to the Q7D4 regimen and the 3C23K antibody or the irrelevant antibody LFB-R565 at about 10 mg/kg/injection according to the regimen Q3-4D12.
The mice were randomized on D11, when the volume of the tumours was between 50 and 158 mm^3, and the treatments began on D13 (9 mice per group).
The tumours were usually measured twice weekly.
The curves of the individual volume of the tumours were plotted.
In one experiment with 9 mice per group, the curves and analyses were therefore stopped when fewer than 8 values per group had been obtained (8 mice alive).
A Kruskal-Wallis test was also carried out.

[2] = Body weight of the mice, carboplatin combination study; format: in vivo; conditions: for Individual body weight of the mice: one value per mouse
Text: Moreover, to identify whether the treatment has a toxic effect, the weight of the mice was monitored individually once a week.

[3] = test system: Cov434-AMHRII Asc1a5 tumour cells;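 also: control mice received NaCl solution, survival endpoint was euthanasia once tumour volume hit 2000 mm^3 or on ethical grounds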
Text: A solution of NaCl was used as the control.
(§1) The animals were sacrificed when the tumour volumes reached 2000 mm^3 or for ethical reasons. The curves of mean values and median values as well as the statistical analyses were stopped when 20% of the mice in the group were dead.

[4] = test system: Cov434-AMHRII Asc1a5 tumour cells (a cell line of human ovarian cancer); experiment: Anti-tumour activity of 3C23K alone or with paclitaxel in Cov434-AMHRII Asc1a5 xenograft (tumour volume, T/C ratio, statistical analysis); conditions: for Kruskal-Wallis Test: contrast vs control; for Individual tumour volume: individual mice;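 as to all read-outs here: subcutaneous Cov434-AMHRII Asc1a5 xenografts in female Swiss nude mice, tumour volume from length×width×height/2 in mm^3, randomized D13, dosing from D14, 8 mice per group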
Protocol: Female Swiss nude mice (Harlan Laboratories) were injected subcutaneously (s.c.) with 7.10^6 cells of Cov434-AMHRII Asc1a5 (cell line of human ovarian cancer transfected with cDNA AMHRII) in Matrigel (1:1 ratio) under a volume of 150 μL on day 0 (D0).
The mice were randomized on D13, when the volume of the tumours was between 58 and 150 mm^3, and the treatments began on D14 (8 mice per group).
The tumours were usually measured twice weekly. Tumour volume (TV) was calculated using the following formula, in which the length corresponds to the largest of the tumour diameters, the width corresponds to the smallest of the tumour diameters and the tumour height: TV (mm^3)=(length×width×height)/2.
In addition, for each group, curves of tumour growth were plotted using the calculated mean tumour volumes or the median tumour volumes.
as §1
In one experiment with 8 mice per group, the curves and analyses were stopped when fewer than 7 values per group had been obtained (7 mice alive).
The statistical differences between the different groups were analysed by ANOVA comparison using the Statgraphics centurion XV software.
The ANOVA table breaks down the variance into two components: an inter-group component and an intra-group component. The ratio F is the ratio of the inter-group estimate to the intra-group estimate. When the P value of test F is greater than or equal to 0.05, there is no statistically significant difference between the mean values of the two groups, with a confidence level of 95%. P values less than 0.05 indicate a significant difference between the mean values of the two groups with a confidence level of 95%.
A Kruskal-Wallis test was also carried out. When the P value is greater than or equal to 0.05, there is no statistically significant difference between the median of the two groups, with a confidence level of 95%. P values less than 0.05 indicate a significant difference between the medians of the two groups with a confidence level of 95%.
The treatment is initiated on day 14 after injection.

[5] = D11, randomization, before treatment
[6] = Day 13, randomization, before treatment

## N.N.O=C([O-])C1(C(=O)[O-])CCC1.[Pt+2] [carboplatin, reference compound]
[1]; [5]
  Individual tumour volume: 53 mm^3 and 142 mm^3 and 61 mm^3 and 102 mm^3 and 90 mm^3 and 72 mm^3 and 81 mm^3 and 70 mm^3 and 114 mm^3
  Mean tumour volume: 87 mm^3
  Median tumour volume: 81 mm^3
[1]; D14
  Individual tumour volume: 104 mm^3 and 210 mm^3 (2×) and 162 mm^3 and 126 mm^3 and 123 mm^3 and 75 mm^3 and 134 mm^3 and 168 mm^3
  Mean tumour volume: 146 mm^3
  Median tumour volume: 134 mm^3
[1]; D18
  Individual tumour volume: 98 mm^3 and 173 mm^3 and 112 mm^3 (2×) and 336 mm^3 and 248 mm^3 and 140 mm^3 and 90 mm^3 (2×)
  Mean tumour volume: 155 mm^3
  Median tumour volume: 112 mm^3
[1]; D22
  Individual tumour volume: 378 mm^3 and 126 mm^3 and 360 mm^3 and 324 mm^3 and 363 mm^3 and 270 mm^3 and 156 mm^3 and 198 mm^3 and 168 mm^3
  Mean tumour volume: 260 mm^3
  Median tumour volume: 270 mm^3
[1]; D25
  Individual tumour volume: 140 mm^3 and 240 mm^3 and 270 mm^3 and 616 mm^3 and 152 mm^3 and 358 mm^3 and 98 mm^3 and 243 mm^3 and 210 mm^3
  Mean tumour volume: 258 mm^3
  Median tumour volume: 240 mm^3
[1]; D29
  Individual tumour volume: 270 mm^3 and 200 mm^3 and 360 mm^3 (2×) and 768 mm^3 and 363 mm^3 and 168 mm^3 and 420 mm^3
  Mean tumour volume: 344 mm^3
  Median tumour volume: 360 mm^3
[1]; D32
  Individual tumour volume: 351 mm^3 and 243 mm^3 and 578 mm^3 and 864 mm^3 and 653 mm^3 and 504 mm^3 and 220 mm^3 and 462 mm^3
  Mean tumour volume: 461 mm^3
  Median tumour volume: 462 mm^3
[1]; D36
  Individual tumour volume: 630 mm^3 and 424 mm^3 and 1148 mm^3 and 1610 mm^3 and 893 mm^3 and 462 mm^3 and 308 mm^3 and 774 mm^3
  Mean tumour volume: 760 mm^3
  Median tumour volume: 630 mm^3
[1]; D39
  Individual tumour volume: 660 mm^3 and 484 mm^3 and 1134 mm^3 and 1495 mm^3 and 1488 mm^3 and 447 mm^3 and 347 mm^3 and 910 mm^3 and 423 mm^3
  Mean tumour volume: 821 mm^3
  Median tumour volume: 660 mm^3
[1]; D43
  Individual tumour volume: 864 mm^3 and 592 mm^3 and 1881 mm^3 and 2112 mm^3 and 2038 mm^3 and 882 mm^3 and 438 mm^3 and 1105 mm^3 and 672 mm^3
  Mean tumour volume: 1176 mm^3
  Median tumour volume: 882 mm^3
[1]; D46
  Individual tumour volume: 1071 mm^3 and 501 mm^3 and 2205 mm^3 and 810 mm^3 and 378 mm^3 and 1450 mm^3 and 878 mm^3
[1]; D49
  Individual tumour volume: 1568 mm^3 and 819 mm^3 and 1125 mm^3 and 480 mm^3 and 1650 mm^3 and 980 mm^3
[1]
  Anti-tumour activity (in words): anti-tumour effect; also recorded: exerts anti-tumour activity
[1]; listed as Carboplatin
  Anti-tumour activity (in words): significant anti-tumour activity
[1]; relative to Control group, D11 (before treatment)
  T/C ratio: 89%
[1]; relative to Control group, D14
  T/C ratio: 82%
[1]; relative to Control group, D18
  T/C ratio: 52%
[1]; relative to Control group, D22
  T/C ratio: 69%
[1]; relative to Control group, D25
  T/C ratio: 54%
[1]; relative to Control group, D29
  T/C ratio: 56%
[1]; relative to Control group, D32
  T/C ratio: 45%
[1]; relative to Control group, D36
  T/C ratio: 40%
[1]; relative to LFB-R565 group, D11 (before treatment)
  T/C ratio: 100%
[1]; relative to LFB-R565 group, D14
  T/C ratio: 87%
[1]; relative to LFB-R565 group, D18
  T/C ratio: 65%
[1]; relative to LFB-R565 group, D22
  T/C ratio: 100%
[1]; relative to LFB-R565 group, D25
  T/C ratio: 59%
[1]; relative to LFB-R565 group, D29
  T/C ratio: 52%
[1]; relative to LFB-R565 group, D32
  T/C ratio: 67%
[1]; relative to LFB-R565 group, D36
  T/C ratio: 35%
[2]; D11 (Sep. 19, 2011)
  Individual body weight of the mice: 22.3 (2×) and 25.8 and 23.0 and 27.1 and 23.3 and 24.5 and 22.7 and 20.4
[2]; D18 (Sep. 26, 2011), in g (unit assumed)
  Individual body weight of the mice: 22.2 and 24.6 and 22.6 and 26.1 and 24.4 and 25.4 and 23.6 and 20.3 and 22.0
[2]; D25 (Oct. 3, 2011)
  Individual body weight of the mice: 27.6 and 28.3 and 25.6 (2×) and 32.7 and 27.0 and 29.4 and 24.2 and 26.0
[2]; D32 (Oct. 10, 2011)
  Individual body weight of the mice: 23.7 and 24.5 and 23.6 (2×) and 28.0 and 23.1 (2×) and 21.1 and 20.2
[2]; D39 (Oct. 17, 2011), in g (unit assumed)
  Individual body weight of the mice: 24.3 and 23.9 and 25.1 and 27.2 and 25.4 and 22.4 and 20.0 and 21.0 and 23.3
[2]; D46 (Oct. 24, 2011)
  Individual body weight of the mice: 25.4 and 25.7 (2×) and 26.4 and 21.7 and 21.0 and 25.0
[2]; Day 11 (before treatment)
  Mean body weight of the mice: 23.5 g
[2]; Day 18
  Mean body weight of the mice: 23.5 g
[2]; Day 25
  Mean body weight of the mice: 27.4 g
[2]; Day 32
  Mean body weight of the mice: 23.4 g
[2]; Day 39
  Mean body weight of the mice: 23.6 g
[2]; carboplatin study
  Effect on body weight / toxic effect (in words): not regarded as a toxic effect
[2]; on D32 in comparison with D25, after the third injection of carboplatin
  Decrease in body weight: about 15%

## CC(=O)O[C@H]1C(=O)[C@@]2(C)[C@H]([C@H](OC(=O)c3ccccc3)[C@]3(O)C[C@H](OC(=O)[C@H](O)[C@@H](NC(=O)c4ccccc4)c4ccccc4)C(C)=C1C3(C)C)[C@]1(OC(C)=O)CO[C@@H]1C[C@@H]2O [paclitaxel, reference compound]
[3]; contrast vs control
  Survival parameter: logrank test chi-squared: 0.04
[3]; group of 8 mice
  Survival parameter Mean: 45 days
  Survival parameter Median: 45 days
[3]; individual mice, experiment ended on day 83
  survival parameter: 34 Days and 41 Days (2×) and 45 Days (2×) and 51 Days (2×) and 55 Days
[3]; mouse, in vivo
  Statistical analysis based on the survival parameter (in words): does not have an activity that is significantly different from that of the control
[4]; D13
  Kruskal-Wallis Test: 0.04
[4]; D20
  Kruskal-Wallis Test: 0.47
[4]; D20 to D41
  Statistical analysis of tumour volume (in words): does not have an activity that is significantly different from that of the control
[4]; D24
  Kruskal-Wallis Test: 0.28
[4]; D27
  Kruskal-Wallis Test: 1.10
[4]; D31
  Kruskal-Wallis Test: 0.89
[4]; D35
  Kruskal-Wallis Test: 0.10
[4]; D41
  Kruskal-Wallis Test: 0.20
[4]; [6]
  Mean tumour volume: 97 mm^3
  Median tumour volume: 90 mm^3
[4]; Day 13
  Individual tumour volume: 126 mm3 and 117 mm3 and 98 mm3 and 83 mm3 (2×) and 66 mm3 and 144 mm3 and 58 mm3
[4]; Day 20
  Mean tumour volume: 226 mm^3
  Median tumour volume: 228 mm^3
  Individual tumour volume: 424 mm3 and 243 mm3 and 240 mm3 and 280 mm3 and 170 mm3 and 126 mm3 and 217 mm3 and 105 mm3
[4]; Day 24
  Mean tumour volume: 313 mm^3
  Median tumour volume: 270 mm^3
  Individual tumour volume: 756 mm3 and 257 mm3 and 356 mm3 and 284 mm3 and 380 mm3 and 180 mm3 (2×) and 110 mm3
[4]; Day 27
  Median tumour volume: 336 mm^3
  Individual tumour volume: 896 mm3 and 325 mm3 and 386 mm3 and 255 mm3 and 560 mm3 and 347 mm3 and 270 mm3 and 198 mm3
[4]; Day 31
  Mean tumour volume: 589 mm^3
  Median tumour volume: 415 mm^3
  Individual tumour volume: 1530 mm3 and 420 mm3 and 673 mm3 and 410 mm3 (2×) and 720 mm3 and 358 mm3 and 192 mm3
[4]; Day 35
  Mean tumour volume: 1176 mm^3
  Median tumour volume: 986 mm^3
  Individual tumour volume: 2706 mm3 and 699 mm3 and 1200 mm3 and 1008 mm3 and 1653 mm3 and 965 mm3 and 823 mm3 and 351 mm3
[4]; Day 41
  Mean tumour volume: 1390 mm^3
  Median tumour volume: 1309 mm^3
  Individual tumour volume: 1064 mm3 and 2380 mm3 and 1309 mm3 and 1389 mm3 and 2269 mm3 and 884 mm3 and 437 mm3
[4]; Day 45
  Individual tumour volume: 1632 mm3 and 2040 mm3 and 2112 mm3 and 1197 mm3 and 798 mm3
[4]; Day 48
  Individual tumour volume: 1536 mm3 and 1323 mm3 and 1232 mm3
[4]; Day 51
  Individual tumour volume: 2166 mm3 and 2112 mm3 and 1348 mm3
[4]; Day 55
  Individual tumour volume: 2132 mm3
[4]; paclitaxel study
  Anti-tumour activity (in words): modest inhibition of tumour growth
